Test results from patent US12486302B2, “Somatostatin receptor antagonist compounds and methods of using the same” (CDRD VENTURES INC., priority 2016, dated 2025).
pIC50: −log10 of the molar value. *1 amine or outer side, *2 acyl side, *3 side chain or, on linkers, in order; H or OH if unused. Where a SMILES comes first, the peptide text is derived from it. Bridges are numbered along the chain shown (N, C = ends). Triazole bridges read from a SMILES are 1,4-linked. Side-chain parts run from the residue outwards. [ ]: non-standard residue; d: D form. The star is where a group is joined. ξ: configuration not given here. dPhe(4-CONH2) = NC(=O)c1ccc(C[C@@H](N)C(=O)O)cc1; dPhe(4-CN) = N#Cc1ccc(C[C@@H](N)C(=O)O)cc1; dPhe(4-NH2) = Nc1ccc(C[C@@H](N)C(=O)O)cc1; Phe(4-Cl) = N[C@@H](Cc1ccc(Cl)cc1)C(=O)O; dDap(N3) = [N-]=[N+]=NC[C@@H](N)C(=O)O; Dap(N3) = [N-]=[N+]=NC[C@H](N)C(=O)O; NMeY = CN[C@@H](Cc1ccc(O)cc1)C(=O)O; NMeT = CN[C@H](C(=O)O)[C@@H](C)O; Lys(Me) = CNCCCC[C@H](N)C(=O)O; Thr(3ξ) = CC(O)[C@H](N)C(=O)O; NMeK = CN[C@@H](CCCCN)C(=O)O; dPra = C#CC[C@@H](N)C(=O)O; MeOSuc = COC(=O)CCC(=O)*; Pra = C#CC[C@H](N)C(=O)O; dDap = NC[C@@H](N)C(=O)O; Dap = NC[C@H](N)C(=O)O; CO = O=C([*:1])[*:2]; NHPh = c1ccc(N*)cc1

Target: somatostatin type 2 (SSTR2) receptors (Homo sapiens, UniProt P30874)
Sequence (P30874 whole entry): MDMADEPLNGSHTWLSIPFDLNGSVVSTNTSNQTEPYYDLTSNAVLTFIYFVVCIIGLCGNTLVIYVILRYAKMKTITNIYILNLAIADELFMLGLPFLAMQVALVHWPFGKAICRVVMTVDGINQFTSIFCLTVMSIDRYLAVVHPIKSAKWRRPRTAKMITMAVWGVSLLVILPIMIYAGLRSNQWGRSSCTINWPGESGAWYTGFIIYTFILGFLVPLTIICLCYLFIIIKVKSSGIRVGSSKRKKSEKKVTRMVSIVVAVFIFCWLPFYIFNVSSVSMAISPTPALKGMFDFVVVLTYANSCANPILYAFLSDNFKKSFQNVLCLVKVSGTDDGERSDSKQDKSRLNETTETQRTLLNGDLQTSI
Test: PathHunter β-Arrestin assay, antagonist mode, SSTR2
Format: cell-based
Details: agonist challenge at EC80
Method: The PathHunter® β-Arrestin assay monitors the activation of a GPCR in a homogenous, non-imaging assay format using a technology developed by DiscoveRx called Enzyme Fragment Complementation (EFC) with β-galactosidase (β-Gal) as the functional reporter. […] EA is fused to β-Arrestin and […] is fused to the GPCR of interest. When the GPCR is activated and β-Arrestin is recruited to the receptor, ED and EA complementation occurs, restoring β-Gal activity which is measured using chemiluminescent PathHunter® Detection Reagents. For antagonist determination, cells were pre-incubated with the compounds followed by agonist challenge at the EC80 concentration. Data was normalized to the maximal and minimal response observed in the presence of EC80 ligand and vehicle. Compound activity was analyzed using CBIS data analysis suite ChemInnovation, CA). Percentage inhibition was calculated using the following formula: % Inhibition=100%×(1−(mean signal of test sample-mean signal of vehicle control)/(mean signal of EC80 control-mean signal of vehicle control)). Percentage inhibition was calculated at 10 concentrations in steps on a Log 3 scale ranging from […] to 5e-5 μM. The results were plotted for IC50 calculation.

Row | SMILES | pIC50
1 | CNCCCC[C@@H]1NC(=O)[C@@H](Cc2ccc(C(N)=O)cc2)NC(=O)[C@H](Cc2ccc(O)cc2)NC(=O)[C@H](NC(=O)[C@H](Cc2ccc(Cl)cc2)NC(=O)CCC(=O)OC)CSSC[C@@H](C(=O)N[C@H](Cc2ccc(O)cc2)C(N)=O)NC(=O)[C@H]([C@@H](C)O)NC1=O [Compound 58, CH3O2C(CH2)2(CO)-Cpa-cyclo[D-Cys-Tyr-D-Phe(4-carbamoyl)-Lys(N^ε-Me)-Thr-Cys]-D-Tyr-NH2] (MeOSuc-[Phe(4-Cl)][dC]Y[dPhe(4-CONH2)][Lys(Me)]TC[dY]-NH2; disulfide 2-7) | 8.63
2 | C[C@@H](O)[C@@H]1NC(=O)[C@H](CCCCN)NC(=O)[C@@H](Cc2ccc(C#N)cc2)NC(=O)[C@H](Cc2ccc(O)cc2)NC(=O)[C@H](NC(=O)[C@@H](N)Cc2ccc(Cl)cc2)CSSC[C@@H](C(=O)N[C@H](Cc2ccc(O)cc2)C(N)=O)NC1=O [Compound 59, H-Cpa-[DCys- Tyr-DPhe(4-CN)- Lys-Thr-Cys]- DTyr-NH2] (H-[Phe(4-Cl)][dC]Y[dPhe(4-CN)]KTC[dY]-NH2; disulfide 2-7) | 7.41
3 | CC(O)[C@@H]1NC(=O)[C@H](CCCCN)NC(=O)[C@@H](Cc2ccc(C(N)=O)cc2)NC(=O)[C@H](Cc2ccc(O)cc2)NC(=O)[C@H](NC(=O)[C@@H](N)Cc2ccc(Cl)cc2)CNC(=O)SC[C@@H](C(=O)N[C@H](Cc2ccc(O)cc2)C(N)=O)NC1=O (stereo partly drawn) [Compound 60, H-Cpa-cyclo [DDap-Tyr- DPhe(4-CONH2)- Lys-Thr-Cys]- DTyr-NH2] | < 6.00
4 | CC(O)[C@@H]1NC(=O)[C@H](CCCCN)NC(=O)[C@@H](Cc2ccc(C(N)=O)cc2)NC(=O)[C@H](Cc2ccc(O)cc2)NC(=O)[C@H](NC(=O)[C@@H](N)Cc2ccc(Cl)cc2)CSC(=O)NC[C@@H](C(=O)N[C@H](Cc2ccc(O)cc2)C(N)=O)NC1=O (stereo partly drawn) [Compound 62, H-Cpa-cyclo[DCys- Tyr-DPhe(4- CONH2)- Lys-Thr-Dap]- DTyr-NH2] (H-[Phe(4-Cl)][dC]Y[dPhe(4-CONH2)]K[Thr(3ξ)][Dap][dY]-NH2; linker 2-7 via CO) | < 6.00
5 | CNCCCC[C@@H]1NC(=O)[C@@H](Cc2ccc(C(N)=O)cc2)NC(=O)[C@H](Cc2ccc(O)cc2)NC(=O)[C@H](NC(=O)[C@@H](N)Cc2ccc(Cl)cc2)CSC(=O)NC[C@@H](C(=O)N[C@H](Cc2ccc(O)cc2)C(N)=O)NC(=O)[C@H](C(C)O)NC1=O (stereo partly drawn) [Compound 63, H-Cpa-cyclo [DCys-Tyr-DPhe (4-CONH2)- Lys(Me)-Thr-Dap]- DTyr-NH2] (H-[Phe(4-Cl)][dC]Y[dPhe(4-CONH2)][Lys(Me)][Thr(3ξ)][Dap][dY]-NH2; linker 2-7 via CO) | < 6.00
6 | C[C@@H](O)[C@@H]1NC(=O)[C@H](CCCCN)NC(=O)[C@@H](Cc2ccc(C(N)=O)cc2)NC(=O)[C@H](Cc2ccc(O)cc2)NC(=O)[C@H](NC(=O)[C@@H](N)Cc2ccc(Cl)cc2)Cn2cc(nn2)C[C@@H](C(=O)N[C@H](Cc2ccc(O)cc2)C(N)=O)NC1=O [Compound 64] (H-[Phe(4-Cl)][dDap(N3)]Y[dPhe(4-CONH2)]KT[Pra][dY]-NH2; triazole 2-7) | < 6.00
7 | C[C@@H](O)[C@@H]1NC(=O)[C@H](CCCCN)NC(=O)[C@@H](Cc2ccc(C(N)=O)cc2)NC(=O)[C@H](Cc2ccc(O)cc2)NC(=O)[C@@H](NC(=O)[C@@H](N)Cc2ccc(Cl)cc2)Cc2cn(nn2)C[C@@H](C(=O)N[C@H](Cc2ccc(O)cc2)C(N)=O)NC1=O [Compound 65] (H-[Phe(4-Cl)][Pra]Y[dPhe(4-CONH2)]KT[Dap(N3)][dY]-NH2; triazole 2-7) | 6.16
8 | C[C@@H](O)[C@@H]1NC(=O)[C@H](CCCCN)NC(=O)[C@@H](Cc2ccc(C(N)=O)cc2)NC(=O)[C@H](Cc2ccc(O)cc2)NC(=O)[C@H](NC(=O)[C@@H](N)Cc2ccc(Cl)cc2)Cc2cn(nn2)C[C@@H](C(=O)N[C@H](Cc2ccc(O)cc2)C(N)=O)NC1=O [Compound 66] (H-[Phe(4-Cl)][dPra]Y[dPhe(4-CONH2)]KT[Dap(N3)][dY]-NH2; triazole 2-7) | < 6.00
9 | C[C@@H](O)[C@@H]1NC(=O)[C@H](CCCCN)NC(=O)[C@@H](Cc2ccc(C(N)=O)cc2)NC(=O)[C@H](Cc2ccc(O)cc2)NC(=O)[C@H](NC(=O)[C@@H](N)Cc2ccc(Cl)cc2)CC=CC[C@@H](C(=O)N[C@H](Cc2ccc(O)cc2)C(N)=O)NC1=O [Compound 67] | < 6.00
10 | C[C@@H](O)[C@@H]1NC(=O)[C@H](CCCCN)NC(=O)[C@@H](Cc2ccc(C(N)=O)cc2)NC(=O)[C@H](Cc2ccc(O)cc2)NC(=O)[C@H](NC(=O)[C@@H](N)Cc2ccc(Cl)cc2)CNC(=O)C[C@@H](C(=O)N[C@H](Cc2ccc(O)cc2)C(N)=O)NC1=O [Compound 69, H-Cpa-cyclo [DDap-Tyr- DPhe(4-CONH2)- Lys-Thr-Asp]- DTyr-NH2] (H-[Phe(4-Cl)][dDap]Y[dPhe(4-CONH2)]KTD[dY]-NH2; lactam 2-7) | < 6.00
11 | C[C@@H](O)[C@@H]1NC(=O)[C@H](CCCCN)NC(=O)[C@@H](Cc2ccc(NC(=O)Nc3ccccc3)cc2)NC(=O)[C@H](Cc2ccc(O)cc2)NC(=O)[C@H](NC(=O)[C@@H](N)Cc2ccc(Cl)cc2)CNC(=O)C[C@@H](C(=O)N[C@H](Cc2ccc(O)cc2)C(N)=O)NC1=O [Compound 70] (H-[Phe(4-Cl)][dDap]Y[dPhe(4-NH2)]([CO-NHPh])KTD[dY]-NH2; lactam 2-7) | < 6.00
12 | CNCCCC[C@@H]1NC(=O)[C@@H](Cc2ccc(C(N)=O)cc2)NC(=O)[C@H](Cc2ccc(O)cc2)NC(=O)[C@H](NC(=O)[C@@H](N)Cc2ccc(Cl)cc2)CNC(=O)C[C@@H](C(=O)N[C@H](Cc2ccc(O)cc2)C(N)=O)NC(=O)[C@H]([C@@H](C)O)NC1=O [Compound 71, H-Cpa-cyclo [DDap-Tyr- DPhe(4-CONH2)- Lys(Me)-Thr- Asp]-DTyr-NH2] (H-[Phe(4-Cl)][dDap]Y[dPhe(4-CONH2)][Lys(Me)]TD[dY]-NH2; lactam 2-7) | 7.88
13 | C[C@@H](O)[C@@H]1NC(=O)[C@H](CCCCN)N(C)C(=O)[C@@H](Cc2ccc(C(N)=O)cc2)NC(=O)[C@H](Cc2ccc(O)cc2)NC(=O)[C@H](NC(=O)[C@@H](N)Cc2ccc(Cl)cc2)CSSC[C@@H](C(=O)N[C@H](Cc2ccc(O)cc2)C(N)=O)NC1=O [Compound 72, H-Cpa-cyclo[DCys- Tyr-D-(4- carbamoyl)Phe- (N-alpha-Me)Lys- Thr-Cys]- DTyr-NH2] (H-[Phe(4-Cl)][dC]Y[dPhe(4-CONH2)][NMeK]TC[dY]-NH2; disulfide 2-7) | 8.24
14 | C[C@@H](O)[C@H]1C(=O)N[C@H](C(=O)N[C@H](Cc2ccc(O)cc2)C(N)=O)CSSC[C@@H](NC(=O)[C@@H](N)Cc2ccc(Cl)cc2)C(=O)N[C@@H](Cc2ccc(O)cc2)C(=O)N[C@H](Cc2ccc(C(N)=O)cc2)C(=O)N[C@@H](CCCCN)C(=O)N1C [Compound 73, H-Cpa-[DCys-Tyr- DPhe(4-carbamoyl)- Lys-NMeThr- Cys]-DTyr-NH2] (H-[Phe(4-Cl)][dC]Y[dPhe(4-CONH2)]K[NMeT]C[dY]-NH2; disulfide 2-7) | 6.26
15 | C[C@@H](O)[C@@H]1NC(=O)[C@H](CCCCN)NC(=O)[C@@H](Cc2ccc(C(N)=O)cc2)NC(=O)[C@H](Cc2ccc(O)cc2)N(C)C(=O)[C@H](NC(=O)[C@@H](N)Cc2ccc(Cl)cc2)CSSC[C@@H](C(=O)N[C@H](Cc2ccc(O)cc2)C(N)=O)NC1=O [Compound 74, H-Cpa-[DCys- NMeTyr-DPhe (4-carbamoyl)- Lys-Thr-Cys]- DTyr-NH2] (H-[Phe(4-Cl)][dC][NMeY][dPhe(4-CONH2)]KTC[dY]-NH2; disulfide 2-7) | 6.80
